Data: US20220218738A1, “POTASSIUM-BINDING AGENTS FOR USE IN HEMODIALYSIS PATIENTS” (AstraZeneca AB, priority 2019, published 2022)

Tested on: hyperkalemia in patients on hemodialysis
Experiment: Phase 3b randomized, double-blind, placebo-controlled study to reduce incidence of pre-dialysis hyperkalemia with SZC
Parameters: species or system human
Conditions: in vivo
Procedure: A Phase 3b, Multicenter, Prospective, Randomized, Double Blind, Placebocontrolled Study to Reduce Incidence of Pre-Dialysis Hyperkalemia with Sodium Zirconium Cyclosilicate (SZC) The study was carried out to evaluate the efficacy of Sodium Zirconium Cyclosilicate in the treatment of hyperkalemia in patients on hemodialysis. The study was designed to include approximately 180 patients with ESRD receiving maintenance hemodialysis treatments three times per week with an indication for treatment of hyperkalemia (FIG. 1). The study is a randomized, double-blind study with two treatment groups, SZC or placebo, and includes hemodialysis patients that have been on dialysis for a minimum of three months and receive treatment three times a week. Patients must have hemodialysis access consisting of an arteriovenous fistula, AV graft, or tunneled (permanent) catheter which is expected to remain in place for the entire duration of the study (FIG. 2).
The starting dose of SZC will be 5 g once daily on non-dialysis day and may be adjusted to a maximum of 15 g per non-dialysis day to maintain a pre-dialysis S-K between 4-5 mmol/L. SZC or placebo will be administered orally on non-dialysis days for a treatment period of eight weeks. Patients will be randomized (1:1) to double-blind treatment with either SZC or placebo, started at 5 g once daily on non-dialysis days, and titrated during a period of four weeks to achieve and maintain a pre-dialysis serum potassium between 4 and 5 mmol/L after the Long Inter-Dialytic Interval (LIDI). Maximum SZC dose is 15 g once daily on non-dialysis days. Treatment will be continued unchanged for an additional four week evaluation period to complete a total of 8 weeks. The primary benefit for patients randomized to SZC is expected to be the maintenance of normokalemia during the long interdialytic interval, potentially including the relief of associated signs and symptoms and an improved quality of life.
For inclusion in the study patients should fulfil the following criteria: 1. Provision of informed consent prior to any study specific procedures. 2. Female or male aged >18 years at screening Visit 1. For patients aged <20 years and enrolled in Japan, a written informed consent should be obtained from the patient and his or her legally acceptable representative. 3. Receiving hemodialysis (or hemodiafiltration) three times a week for treatment of endstage renal disease (ESRD) for at least three months before randomization. 4. […]
Patients should not enter the study if any of the following exclusion criteria are fulfilled: 1. […] Hemoglobin <9 g/dL on screening (as assessed on Visit 1). […]

Substance: Sodium Zirconium Cyclosilicate [SZC]
- number of patients with adverse events: 40
- number of patients with serious adverse event: 7
- overall safety: no safety concerns
- patients with pre-dialysis hypokalemia (serum K<3.5 mmol/L): five
